Patent publication US20250332178A1, “METHODS OF TREATING MYCOBACTERIAL INFECTIONS USING TETRACYCLINE COMPOUNDS” (priority 2018, published 2025)
≈ marks a conversion by molar mass, not a printed value. Like-named read-outs stand apart in the source and are kept apart here.

Legend:
[1] = test system: rapid-growing mycobacteria (RGM) isolates; test: MIC (CLSI broth dilution), all RGM isolates; type: cell-based, nontuberculous mycobacteria; details: RGM clinical isolates, all species
[2] = test system: Mycobacterium fortuitum; test: MIC by broth microdilution in CAMHB, clinical isolates; type: cell-based; details: Mycolicibacterium fortuitum; for MIC: read-out: MIC
Experimental: (§1) A total of 24 clinical isolates of Mycobacterium abscessus, 22 clinical isolates of Mycobacterium chelonae and 20 clinical isolates of Mycobacterium fortuitum were tested in the study. The study also used the antibiotics tigecycline, doxycycline and amikacin for comparison purposes. […] Amikacin was dissolved in DMSO prior to freezing at −20° C. For susceptibility testing, stock solutions of antibiotic compounds were serially diluted in 50 μL of cation adjusted Mueller-Hinton broth (CAMHB) in polystryrene 96-well round-bottom microtiter plates. To each well, 50 μL of the appropriate mycobacterial cell suspension was added to yield a final concentration of about 1×10^5 CFU/mL. The inoculum used for each isolate was measured by titration in saline with Tween 80 and plating on MH agar. The Mycobacterium abscessus and Mycobacterium fortuitum titer plates were incubated at 37° C. in ambient air for 3-4 days and 5-7 days, respectively. The Mycobacterium chelonae titer plates were incubated at 30° C. in ambient air for 3-5 days. Each isolate was tested at least in duplicate. The MIC was defined as the lowest concentration of antimicrobial agent yielding no visible turbidity.

[3] = test system: Mycobacterium chelonae; test: as above; type: cell-based; details: 22 clinical isolates; read-out: MIC50
Experimental: as §1

[4] = test system: Mycobacterium abscessus; test: as above; type: cell-based; details: Mycobacteroides abscessus; for MIC: read-out: MIC
Experimental: as §1

CN(C)c1cc(CNCC(C)(C)C)c(O)c2c1C[C@H]1C[C@H]3C(N(C)C)C(O)=C(C(N)=O)C(=O)[C@@]3(O)C(O)=C1C2=O (stereo partly drawn) [Omadacycline, (4aS,5aR,12aS)-4,7-bis(dimethylamino)-3,10,12,12a-tetrahydroxy-9-((neopentylamino)methyl)-1,11-dioxo-1,4,4a,5,5a,6,11,12a-octahydrotetracene-2-carboxamide]
MIC50 ([1]; read-out: MIC50): 0.25 µg/mL (≈ 0.449 µM)
MIC90 ([1]; read-out: MIC90): 0.5 µg/mL (≈ 0.898 µM)
MIC ([2]; isolate No. 1, 3349): 0.25 µg/mL (≈ 0.449 µM)
MIC ([2]; isolate No. 2, 3499): 0.03 µg/mL (≈ 0.0539 µM)
MIC ([2]; isolate No. 3, 2797): 0.125 µg/mL (≈ 0.225 µM)
MIC ([2]; isolate No. 4, 32): 0.25 µg/mL (≈ 0.449 µM)
MIC ([2]; isolate No. 5, 33): 0.125 µg/mL (≈ 0.225 µM)
MIC ([2]; isolate No. 6, 3489): 0.125 µg/mL (≈ 0.225 µM)
MIC ([2]; isolate No. 7, 3491): 0.125 µg/mL (≈ 0.225 µM)
MIC ([2]; isolate No. 8, 54): 0.06 µg/mL (≈ 0.108 µM)
MIC ([2]; isolate No. 9, 38): 0.125 µg/mL (≈ 0.225 µM)
MIC ([2]; isolate No. 10, 36): 0.125 µg/mL (≈ 0.225 µM)
MIC ([2]; isolate No. 11, 3480): 0.25 µg/mL (≈ 0.449 µM)
MIC ([2]; isolate No. 12, 3126): 0.125 µg/mL (≈ 0.225 µM)
MIC ([2]; isolate No. 13, 3579): 0.25 µg/mL (≈ 0.449 µM)
MIC ([2]; isolate No. 14, 7484): 0.5 µg/mL (≈ 0.898 µM)
MIC ([2]; isolate No. 15, 3488): 0.5 µg/mL (≈ 0.898 µM)
MIC ([2]; isolate No. 16, 3276): 0.25 µg/mL (≈ 0.449 µM)
MIC ([2]; isolate No. 17, 3442): 1 µg/mL (≈ 1.8 µM)
MIC ([2]; isolate No. 18, 3316): 0.125 µg/mL (≈ 0.225 µM)
MIC ([2]; isolate No. 19, 3490): 0.25 µg/mL (≈ 0.449 µM)
MIC ([2]; isolate No. 20, 2491): 1 µg/mL (≈ 1.8 µM)
MIC50 ([2]; 20 clinical isolates, read-out: MIC50): 0.125 µg/mL (≈ 0.225 µM)
MIC90 ([2]; 20 clinical isolates, read-out: MIC90): 0.5 µg/mL (≈ 0.898 µM)
MIC50 [3]: 0.125 µg/mL (≈ 0.225 µM)
MIC ([4]; isolate No. 1, BB2): 1 µg/mL (≈ 1.8 µM)
MIC ([4]; isolate No. 2, BB4): 4 µg/mL (≈ 7.19 µM)
MIC ([4]; isolate No. 3, 5922): 0.125 µg/mL (≈ 0.225 µM)
MIC ([4]; isolate No. 4, BB3): 0.06 µg/mL (≈ 0.108 µM)
MIC ([4]; isolate No. 5, BB6): 0.06 µg/mL (≈ 0.108 µM)
MIC ([4]; isolate No. 6, 5908): 1 µg/mL (≈ 1.8 µM)
MIC ([4]; isolate No. 7, BB7): 2 µg/mL (≈ 3.59 µM)
MIC ([4]; isolate No. 8, 6031): 0.25 µg/mL (≈ 0.449 µM)
MIC ([4]; isolate No. 9, 5785): 0.25 µg/mL (≈ 0.449 µM)
MIC ([4]; isolate No. 10, BB8): 1 µg/mL (≈ 1.8 µM)
MIC ([4]; isolate No. 11, 6111): 1 µg/mL (≈ 1.8 µM)
MIC ([4]; isolate No. 12, 6005): 1 µg/mL (≈ 1.8 µM)
MIC ([4]; isolate No. 13, 5605): 1 µg/mL (≈ 1.8 µM)
MIC ([4]; isolate No. 14, 5931): 1 µg/mL (≈ 1.8 µM)
MIC ([4]; isolate No. 15, BB1): 2 µg/mL (≈ 3.59 µM)
MIC ([4]; isolate No. 16, BB5): 2 µg/mL (≈ 3.59 µM)
MIC ([4]; isolate No. 17, 5812): 2 µg/mL (≈ 3.59 µM)
MIC ([4]; isolate No. 18, 5901): 1 µg/mL (≈ 1.8 µM)
MIC ([4]; isolate No. 19, 5960): 8 µg/mL (≈ 14.4 µM)
MIC ([4]; isolate No. 20, 6142): 1 µg/mL (≈ 1.8 µM)
MIC ([4]; isolate No. 21, 5922): 0.5 µg/mL (≈ 0.898 µM)
MIC ([4]; isolate No. 22, LT 949): 1 µg/mL (≈ 1.8 µM)
MIC ([4]; isolate No. 23, 6025): 1 µg/mL (≈ 1.8 µM)
MIC ([4]; isolate No. 24, 6153): 2 µg/mL (≈ 3.59 µM)
MIC50 ([4]; 24 clinical isolates (tigecycline: subset N=14), read-out: MIC50): 1 µg/mL (≈ 1.8 µM)
MIC90 ([4]; 24 clinical isolates (tigecycline: subset N=14), read-out: MIC90): 2 µg/mL (≈ 3.59 µM)
